The target in the assay is hCRTH2 receptor (Homo sapiens (Human), UniProt Q9Y5Y4). Put plainly: hCRTH2 receptor membranes radioligand (3H-PGD2) displacement assay. Format: binding. The settings on record: 3H-PGD2 radioligand displacement, HEK293-hCRTH2 membranes. Summed up:
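Compound was first mixed with buffer, then 3H-PGD2 was added at 2.5 nM, and the reaction was started with hCRTH2 membranes from HEK293 cells at 20 μg/well. After 90 min at room temperature, mixtures were filtered and washed with ice-cold buffer, and retained radioactivity was counted.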
In general terms: Displacement assays read how much labelled ligand stays bound in the presence of the test substance.

As a reminder, the IC50 is the concentration needed to halve the response being measured. Read a low IC50 as higher potency.

Chain of hCRTH2 receptor (Q9Y5Y4 whole entry): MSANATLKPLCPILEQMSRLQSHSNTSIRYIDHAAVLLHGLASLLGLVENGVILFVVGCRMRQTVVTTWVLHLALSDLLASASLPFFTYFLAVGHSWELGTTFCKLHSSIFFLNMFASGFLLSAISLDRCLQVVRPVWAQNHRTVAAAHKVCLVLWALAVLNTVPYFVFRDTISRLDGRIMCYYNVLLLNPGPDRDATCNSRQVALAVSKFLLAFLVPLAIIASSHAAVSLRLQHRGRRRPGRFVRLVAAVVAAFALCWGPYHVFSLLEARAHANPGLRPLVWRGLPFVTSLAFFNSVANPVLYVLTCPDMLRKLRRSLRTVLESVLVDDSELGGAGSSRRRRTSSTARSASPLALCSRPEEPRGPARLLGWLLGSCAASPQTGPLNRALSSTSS

With `CCOc1ccc(CC(=O)O)cc1-c1ccc(F)c2c1CN(C(=O)CC(C)c1cnccn1)CC2` (racemic) [Example 281], the IC50 was found to be 27.5 nM.
In turn, `COc1ccc(CC(=O)O)cc1-c1ccc(F)c2c1CCN(C(=O)[C@@H]1C[C@H]1c1ccccc1)C2` [Example 99, {3-[8-Fluoro-2-((1R,2R)-2-phenyl-cyclopropanecarbonyl)-1,2,3,4-tetrahydro-isoquinolin-5-yl]-4-methoxy-phenyl}-acetic acid] had a concentration for half-maximal inhibition (IC50) of 414 nM.
Under `COc1cc(CC(=O)O)ccc1-c1ccc(F)c2c1CN(C(=O)CCn1ncc3cc(F)ccc31)CC2` [Example 190, (4-{5-Fluoro-2-[3-(5-fluoro-indazol-1-yl)-propionyl]-1,2,3,4-tetrahydro-isoquinolin-8-yl}-3-methoxy-phenyl)-acetic acid] stands 7.25 nM; under `COc1ccc(CC(=O)O)cc1-c1ccc(Cl)c2c1CN(C(=O)CCc1c(C)[nH]c3ccccc13)CC2` [Example 79, (3-{5-Chloro-2-[3-(2-methyl-1H-indol-3-yl)-propionyl]-1,2,3,4-tetrahydro-isoquinolin-8-yl}-4-methoxy-phenyl)-acetic acid], 37.8 nM.
In turn, `COc1ccc(CC(=O)O)cc1-c1ccc(F)c2c1CN(C(=O)CC1(O)CCCCC1)CC2` [Example 128, (3-{5-Fluoro-2-[2-(1-hydroxy-cyclohexyl)-acetyl]-1,2,3,4-tetrahydro-isoquinolin-8-yl}-4-methoxy-phenyl)-acetic acid] came in with a half-inhibitory concentration (IC50) of 538 nM.
Molecule `O=C(O)Cc1cc(-c2ccc(F)c3c2CN(C(=O)OCc2ccccc2)CC3)ccc1Cl` [Example 11, 8-(3-Carboxymethyl-4-chloro-phenyl)-5-fluoro-3,4-dihydro-1H-isoquinoline-2-carboxylic acid benzyl ester] came in with an IC50 of 69.1 nM.
Under `COc1ccc(CC(=O)O)cc1-c1ccc(F)c2c1CN(C(=O)[C@@H]1C[C@H]1c1ccccc1F)CC2` [Example 66, (3-{5-Fluoro-2-[(1R,2R)-2-(2-fluoro-phenyl)-cyclopropanecarbonyl]-1,2,3,4-tetrahydro-isoquinolin-8-yl}-4-methoxy-phenyl)-acetic acid] stands 1.77 nM.
On to `COc1ccc(CC(=O)O)cc1-c1ccc(F)c2c1CN(C(=O)C1CCc3ccccc3O1)CC2` (racemic) [Example 115, (±)-{3-[2-(Chroman-2-carbonyl)-5-fluoro-1,2,3,4-tetrahydro-isoquinolin-8-yl]-4-methoxy-phenyl}-acetic acid], for which the IC50 turned out to be 173 nM.
In turn, `COc1ccc(CC(=O)O)cc1-c1ccc(F)c2c1CN(C(=O)OCc1cnc(C)s1)CC2` [Example 151, 8-(5-Carboxymethyl-2-methoxy-phenyl)-5-fluoro-3,4-dihydro-1H-isoquinoline-2-carboxylic acid 2-methyl-thiazol-5-ylmethyl ester] had a concentration for half-maximal inhibition (IC50) of 5.73 nM.
Turning to `CCOc1ccc(CC(=O)O)cc1-c1ccc(F)c2c1CN(C(=O)NCc1ccccc1F)CC2` [Example 432, {4-Ethoxy-3-[5-fluoro-2-(2-fluoro-benzylcarbamoyl)-1,2,3,4-tetrahydro-isoquinolin-8-yl]-phenyl}-acetic acid], the half-maximal inhibitory concentration (IC50) worked out at 5.3 nM.
Molecule `CC(C)Oc1ccc(CC(=O)O)cc1-c1ccc(F)c2c1CN(C(=O)CC(C)c1ccccn1)CC2` (racemic) [Example 293] yielded an IC50 of 1.6 nM.
The molecule `COc1ccc(CC(=O)O)cc1-c1ccc(F)c2c1CN(C(=O)CC1Cc3ccccc3C1)CC2` [Example 111, {3-[5-Fluoro-2-(2-indan-2-yl-acetyl)-1,2,3,4-tetrahydro-isoquinolin-8-yl]-4-methoxy-phenyl}-acetic acid] displayed a half-maximal inhibitory concentration (IC50) of 8.11 nM.
Turning to `COc1ccc(CC(=O)O)cc1-c1ccc(F)c2c1CN(C(=O)C[C@H](C)c1ccccc1)CC2` [Example 107, {3-[5-Fluoro-2-((S)-3-phenyl-butyryl)-1,2,3,4-tetrahydro-isoquinolin-8-yl]-4-methoxy-phenyl}-acetic acid], the IC50 is 18.3 nM.
Under `CCOc1cc(CC(=O)O)ccc1-c1ccc(F)c2c1CN(C(=O)OCc1cccc(C)n1)CC2` [Example 390, 8-(4-Carboxymethyl-2-ethoxy-phenyl)-5-fluoro-3,4-dihydro-1H-isoquinoline-2-carboxylic acid 6-methyl-pyridin-2-ylmethyl ester] stands 0.8 nM; under `COc1ccc(CC(=O)O)cc1-c1ccc(F)c2c1CCN(C(=O)CCN1CCCc3ccccc31)C2` [Example 104, {3-[2-(3-3,4-Dihydro-2H-quinolin-1-yl-propionyl)-8-fluoro-1,2,3,4-tetrahydro-isoquinolin-5-yl]-4-methoxy-phenyl}-acetic acid], 21.3 nM.
`COc1ccc(CC(=O)O)cc1-c1ccc(F)c2c1CN(C(=O)CC1(c3ccccc3)CCC1)CC2` [Example 250, (3-{5-Fluoro-2-[2-(1-phenyl-cyclobutyl)-acetyl]-1,2,3,4-tetrahydro-isoquinolin-8-yl}-4-methoxy-phenyl)-acetic acid] yielded a 50% inhibitory concentration (IC50) of 146 nM.
In turn, `COc1ccc(CC(=O)O)cc1-c1ccc(F)c2c1CCN(C(=O)CCCc1ccccc1)C2` [Example 100, {3-[8-Fluoro-2-(4-phenyl-butyryl)-1,2,3,4-tetrahydro-isoquinolin-5-yl]-4-methoxy-phenyl}-acetic acid] had a 50% inhibitory concentration (IC50) of 105 nM.
On to `CCOc1ccc(CC(=O)O)cc1-c1ccc(F)c2c1CN(C(=O)OCc1ccnn1C)CC2` [Example 367, 8-(5-Carboxymethyl-2-ethoxy-phenyl)-5-fluoro-3,4-dihydro-1H-isoquinoline-2-carboxylic acid 2-methyl-2H-pyrazol-3-ylmethyl ester], for which the IC50 stood at 8.8 nM.
`COc1ccc(CC(=O)O)cc1-c1ccc(F)c2c1CN(C(=O)CCc1cccc(C)n1)CC2` [Example 92, (3-{5-Fluoro-2-[3-(6-methyl-pyridin-2-yl)-propionyl]-1,2,3,4-tetrahydro-isoquinolin-8-yl}-4-methoxy-phenyl)-acetic acid] had a concentration for half-maximal inhibition (IC50) of 15.7 nM.
In the case of `CCOc1cc(CC(=O)O)ccc1-c1ccc(F)c2c1CN(C(=O)NCc1ccc(F)cc1)CC2` [Example 442, {3-Ethoxy-4-[5-fluoro-2-(4-fluoro-benzylcarbamoyl)-1,2,3,4-tetrahydro-isoquinolin-8-yl]-phenyl}-acetic acid], the IC50 was 5.3 nM.
Turning to `CCOC(=O)N1CCc2c(F)ccc(-c3cc(CC(=O)O)ccc3OC)c2C1` [Example 141, 8-(5-Carboxymethyl-2-methoxy-phenyl)-5-fluoro-3,4-dihydro-1H-isoquinoline-2-carboxylic acid ethyl ester], the half-maximal inhibitory concentration (IC50) is 187 nM.
`CC(C)(CC(=O)N1CCc2c(F)ccc(-c3ccc(CC(=O)O)cc3OCC(F)(F)F)c2C1)c1ccccc1` [Example 286, [4-[5-Fluoro-2-(3-methyl-3-phenyl-butyryl)-1,2,3,4-tetrahydro-isoquinolin-8-yl]-3-(2,2,2-trifluoro-ethoxy)-phenyl]-acetic acid] showed a half-maximal inhibitory concentration (IC50) of 8.9 nM.
Take `CCOc1cc(CC(=O)O)ccc1-c1ccc(F)c2c1CN(C(=O)[C@@H]1C[C@H]1c1ccccc1)CC2` [Example 231, {3-Ethoxy-4-[5-fluoro-2-((1R,2R)-2-phenyl-cyclopropanecarbonyl)-1,2,3,4-tetrahydro-isoquinolin-8-yl]-phenyl}-acetic acid]: the IC50 is 10.5 nM.

For the origin of these results see patent publication US9255090B2, “Heterocyclyl derivatives and their use as prostaglandin D2 receptor modulators” (Actelion Pharmaceuticals Ltd., priority 2012, dated 2016).
